Test results from patent publication US7019135B2, “Anti-viral pyrimidine nucleoside analogues” (University College Cardiff Consultants Limited, priority 2000, dated 2006).
“Also recorded” adds a separate entry of the source.

Key:
[1] = system: HSV-1; conditions: in vitro; Can. J. Chem. 74, 1609, 1996; cited from earlier work
[2] = system: HSV-2; conditions: in vitro; Can. J. Chem. 74, 1609, 1996; cited from earlier work
[3] = system: VZV; conditions: in vitro; Can. J. Chem. 74, 1609, 1996; cited from earlier work
[4] = system: CMV; conditions: in vitro; Can. J. Chem. 74, 1609, 1996; cited from earlier work
[5] = system: Varicella zoster virus (VZV); conditions: said in WO 98/49177; cited from earlier work
[6] = system: CMV; conditions: said in WO 98/49177; cited from earlier work
[7] = system: CMV strain AD169; test: CMV strain AD169 induced cytopathicity in HEL cells; assay type: cell-based, cytomegalo virus; conditions: Human betaherpesvirus 5, AD169, 168 h, 50% reduction of virus induced cytopathicity, 7 days post infection
Method: (§1) Each of the products of Examples 1 to 9 was tested in vitro in tissue cultures for toxicity and for potent antiviral actions with respect to cytomegalo virus (CMV). EC50/μM CMV-AD169 is the drug concentration in μM required to reduce by 50% CMV strain AD169 induced cytopathicity in human embryonic lung fibroblast (HEL) cells measured 7 days post infection compared to untreated control. Further details of the methodology employed can be found in McGuigan et al. J. Med. Chem., 1999, 42, 4479-4484.

[8] = system: CMV strain Davis; test: CMV strain Davis induced cytopathicity in HEL cells; assay type: cell-based, cytomegalo virus; conditions: Human betaherpesvirus 5, 168 h, 50% reduction of virus induced cytopathicity, 7 days post infection
Method: as §1, with “CMV Davis” for “CMV-AD169”, “Davis” for “AD169”

[9] = system: human embryonic lung cells; test: minimum cytotoxic concentration to human embryonic lung cells; assay type: cell-based; conditions: for MCC/μM: minimum cytotoxic concentration, human embryonic lung cells; for toxicity (in words): summary of the table data
Method: (§2) Each of the products of Examples 1 to 9 was tested in vitro in tissue cultures for toxicity and for potent antiviral actions with respect to cytomegalo virus (CMV). MCC/μM is the minimum cytotoxic concentration to human embryonic lung cells. Further details of the methodology employed can be found in McGuigan et al. J. Med. Chem., 1999, 42, 4479-4484.

[10] = concentration required to reduce the cell number by 50%; assay type: cell-based; conditions: human, human embryonic lung cells; concentration reducing the cell number by 50%
Method: as §2, with “CC50/μM” for “MCC/μM”, “compound” for “minimum cytotoxic”, “concentration required” for “concentration”, “reduce the cell number by 50%.” for “human embryonic lung cells.”

[11] = system: cytomegalo virus (CMV); test: anti-CMV activity in tissue culture, summary in words of the table; assay type: cell-based; conditions: for anti-CMV activity (in words): summary of the table data, comparison with Ganciclovir
Method: as §1, with “EC50/μM CMV Davis is” for “Further details of”, “drug concentration” for “methodology employed can be found”, “μM required to reduce by 50% CMV strain Davis induced cytopathicity in human embryonic lung fibroblast (HEL) cells measured 7 days post infection compared to untreated control.” for “McGuigan et al. J. Med. Chem., 1999, 42, 4479-4484.”

[12] = system: VZV OKA strain; test: VZV OKA strain induced cytopathicity in HEL cells; assay type: cell-based, Varicella zoster virus; conditions: Human alphaherpesvirus 3, HEL, 168 h, read-out: EC50 VZV OKA strain
Method: (§3) The compound of Example 3 wherein R is -nC10H21 was tested to assess its potency against VZV. Employing the equivalent EC50 assay as set out above, namely a measurement of the drug concentration required to reduce by 50% the VZV induced cytopathicity in human embryonic fibroblast (HEL) measured 7 days post infection, a concentration of 40 μM was found with respect to VZV OKA strain and a concentration of 20 μM was measured with respect to VZV YS strain.

[13] = system: VZV YS strain; test: VZV YS strain induced cytopathicity in HEL cells; assay type: cell-based, Varicella zoster virus; conditions: Human alphaherpesvirus 3, 168 h, 50% reduction of VZV induced cytopathicity, 7 days post infection
Method: as §3

| Compound | EC50 [7] [µM] | EC50 [8] [µM] | MCC/μM [9] [µM] | CC50 [10] [µM] | toxicity (in words) [9] | anti-CMV activity (in words) [11] | other results |
| --- | --- | --- | --- | --- | --- | --- | --- |
| O=c1nc2occc2cn1C1CC(O)C(CO)O1 (centres unmarked) |  |  |  |  |  |  | activity against HSV-1 (in words) [1]: inactive; activity against HSV-2 (in words) [2]: inactive; activity against VZV (in words) [3]: inactive; activity against CMV (in words) [4]: inactive |
| CCCCCCCCCCc1cc2cn([C@H]3C[C@H](O)[C@@H](CO)O3)c(=O)nc2o1 [3-(2′-deoxy-β-D-ribofuranosyl)-6-decyl-2,3-dihydrofuro[2,3-d]pyrimidin-2-one] |  |  |  |  |  |  | anti-Varicella zoster virus (VZV) activity (in words) [5]: potent |
| O=c1nc2oc(CCCCCCCCCCl)cc2cn1C1CC(O)C(CO)O1 (centres unmarked) [6-(9-chlorononyl)-3-(4-hydroxy-5-(hydroxymethyl)tetrahydro-2-furanyl)-2,3-dihydrofuro[2,3,-d] pyrimidin-2-one] |  |  |  |  |  |  | anti-CMV activity (in words) [6]: demonstrate anti-CMV activity |
| CCCCCCc1cc2cn(C3CCC(CO)O3)c(=O)nc2o1 [Example 1, 3-[2′,3′-dideoxy-ribo-β-D-furanosyl]-6-hexyl-2,3-dihydrofuro[2,3-d]pyrimidin-2-one] | 32 | > 50 | 200 | 143 |  |  |  |
| CCCCCCCCc1cc2cn(C3CCC(CO)O3)c(=O)nc2o1 [Example 2, 3-[2′3′-dideoxy-ribo-β-D-furanosyl]-6-octyl-2,3-dihydrofuro[2,3-d]pyrimidin-2-one] | 1.5 | 2.4 | 20 | 112 | toxicity greater than any of the compounds of Examples 1, 3, 4, 5 and 6 | potent anti-CMV activity |  |
| CCCCCCCCCCc1cc2cn(C3CCC(CO)O3)c(=O)nc2o1 [Example 3, 3-[2′,3′-dideoxy-ribo-β-D-furanosyl]-6-decyl-2,3-dihydrofuro[2,3-d]pyrimidin-2-one] | 2.6 | 3.2 | >200 | > 200 | acceptable level of toxicity | at least comparable to that of the known drug Ganciclovir | EC50 [12]: 40 µM; EC50 [13]: 20 µM; activity against CMV compared with VZV (in words) ([11]; CMV versus VZV EC50): substantially more active against CMV, than against VZV |
| CCCCCCCCCCCCc1cc2cn(C3CCC(CO)O3)c(=O)nc2o1 [Example 4, 3-[2′,3′-dideoxy-ribo-β-D-furanosyl]-6-dodecyl-2,3-dihydrofuro[2,3-d]pyrimidin-2-one] | 3.7 | 5 | 200 | > 200 | acceptable level of toxicity | at least comparable to that of the known drug Ganciclovir |  |
| CCCCCCCCCCCCCCc1cc2cn(C3CCC(CO)O3)c(=O)nc2o1 [Example 5, 3-[2′,3′-dideoxy-ribo-β-D-furanosyl]-6-tetradecyl-2,3-dihydrofuro[2,3-d]pyrimidin-2-one] | 25 | 40 | 200 | > 200 |  |  |  |
| CCCCCCCCCc1cc2cn(C3CCC(CO)O3)c(=O)nc2o1 [Example 6, 3-[2′,3′-dideoxy-ribo-β-D-furanosyl]-6-nonyl-2,3-dihydrofuro[2,3-d]pyrimidin-2-one] | 1.2 | 1.3 | 200 | > 200 | acceptable level of toxicity | potent anti-CMV activity; also recorded: at least comparable to that of the known drug Ganciclovir |  |
| CCCCCCCCCCCc1cc2cn(C3CCC(CO)O3)c(=O)nc2o1 [Example 7, 3-[2′,3′-dideoxy-ribo-β-D-furanosyl]-6-undecyl-2,3-dihydrofuro[2,3-d]pyrimidin-2-one] | 1.4 | 1.2 | 50 | > 200 | toxicity greater than any of the compounds of Examples 1, 3, 4, 5 and 6 | potent anti-CMV activity |  |
| CCCCOCCCCCCCCCc1cc2cn(C3CCC(CO)O3)c(=O)nc2o1 [Example 8, 3-(2′-3′-Dideoxy-β-D-ribofuranosyl)-6-[9-butyloxynonyl]-2,3-dihydrofuro[2,3-d]pyrimidin-2-one] | 1.2 | 1 | 5 | 200 | toxicity greater than any of the compounds of Examples 1, 3, 4, 5 and 6 | potent anti-CMV activity |  |
| O=c1nc2oc(CCCCCCCCCOCCCCCl)cc2cn1C1CCC(CO)O1 [Example 9, 3-(2′-3′-Dideoxy-β-D-ribofuranosyl)-6-[9-(4-chlorobutoxy)nonyl]-2,3-dihydrofuro[2,3-d]pyrimidin-2-one] | 2.6 | 1 | 20 | > 200 | toxicity greater than any of the compounds of Examples 1, 3, 4, 5 and 6 | potent anti-CMV activity |  |
| Nc1nc(O)c2ncn(COC(CO)CO)c2n1 [Ganciclovir, reference compound] | 2.6 | 3.4 | >150 |  |  |  |  |
